This is an account of results in ChEMBL document CHEMBL1201862, “PubChem BioAssay data set” (2004).

Experiment [1] relates to BJ. Put plainly: BJ-TERT-LT-ST fibroblast viability loss – cell-based, RAS-independent, luminescence, dose response (AID 1935).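 Also: BJ fibroblasts immortalized with TERT plus LT and ST oncogenes.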 In kind it is functional. Conditions: Homo sapiens.
Experiment [2] is described as follows: Luminescence Cell-Based Dose Response to Identify Activators of Luciferase Translation or Activity in H4-C Neuroglioblastoma Cells. [Related pubchem assays: 1829 (Project Summary), 1814 (Primary HTS)]. In kind it is functional.
Experiment [3] in a line: Luminescence-based dose response cell-based high throughput screening assay for cytotoxic compounds using the IEC-6 intestinal epithelial cell line. [Related pubchem assays: 1858 (Summary AID.), 1825 (Counterscreen.), 1907 (Confirmation screen.)]. The class given is functional.
Experiment [4] in a line: blockers of HIV-1 envelope-mediated cell-cell fusion – cherry-pick, dose response (AID 652057). In kind it is functional, cell-based.
The nature of experiment [5]: decrease of insulin promoter-GFP reporter – imaging, high-content screening, mouse beta cells (AID 1628). In kind it is functional. Conditions: MIN6.
Experiment [6] is described as follows: Luminescence Cell-Based Dose Confirmation to Identify Activators of 5'UTR Stem-Loop Driven Alpha-Synuclein mRNA Translation in H4 Neuroglioblastoma Cells. [Related pubchem assays: 1829 (Project Summary), 1814 (Primary HTS)]. The class given is functional.
Experiment [7] in a line: DRD fibroblast viability loss – cell-based, non-viral oncogenic, luminescence, dose response (AID 1934). The class given is functional. Conditions: Homo sapiens.
Experiment [8] is described as follows: off-target signal loss in HeLa-CEM21 co-culture – HeLa F-luc CTL cells, cherry-picked, counter-screen for HIV-1 Env fusion inhibitor project, dose response (AID 652040).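 Also: potency for signal decrease marking cytotoxic or nonspecific inhibition.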 The class given is functional, cell-based. (In general: Counterscreens check selectivity or assay interference.)
Experiment [9] is described as follows: viability loss in CEM21 cells – cell-based, CellTiter-Glo luminescence, cherry-picked, cytotoxicity control for viral fusion inhibitor project, dose response (AID 652042).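 Also: potency for signal decrease meaning cytotoxicity.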 In kind it is functional. A general note: Cellular ATP, detected with luciferase, serves as a proxy for viable cell number.
Experiment [10] is described as follows: Luminescence Cell-Based Dose Response to Identify Activators of 5'UTR Stem-Loop Driven Prion Protein mRNA Translation in H4-C Neuroglioblastoma Cells. [Related pubchem assays: 1829 (Project Summary), 1814 (Primary HTS)]. In kind it is functional.
Experiment [11] concerns BJ. The experiment in a line: BJ-TERT fibroblast viability loss – cell-based, RAS-independent, luminescence, dose response (AID 1933). The class given is functional. Conditions: Homo sapiens.
Experiment [12] is described as follows: Luminescence Cell-Based Dose Confirmation HTS to Identify Activators of 5'UTR Stem-Loop Driven Alpha-Synuclein mRNA Translation in H4 Neuroglioblastoma Cells. [Related pubchem assays: 1829 (Project Summary), 1814 (Primary HTS)]. The class given is functional.
Experiment [13] in a line: HIV-1 AD8 envelope cell-cell fusion blockers – cherry-pick, dose response (AID 652062).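 Also: luciferase signal from cell-cell fusion driven by HIV-1 clade B AD8 Env; potency is for inhibitors of fusion seen as a drop in luminescence.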 The class given is functional, cell-based.
Experiment [14] has as its system BJ. Put plainly: cells. Conditions: Homo sapiens. The class given is functional, cell-based.
A short description of experiment [15]: Luminescence Cell-Based Dose Response HTS to Identify Activators of Luciferase Translation or Activity in H4 […] Cells. [Related pubchem assays: 1829 (Project Summary), 1814 (Primary HTS)]. The class given is functional.
A short description of experiment [16]: blockers of HIV-1 ZM109 envelope-driven cell-cell fusion – HeLa effector, CEM target cells, luciferase, cherry-pick, dose response (AID 652058).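 Also: luciferase signal from HIV-1 Env mediated cell-cell fusion of effector and target cells.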 In kind it is functional, cell-based.
Experiment [17] in a line: reduction of Shn3 3'UTR-driven luciferase in osteoblasts – cell-based, Clone20 osteoblasts, firefly luciferase, cherry-picked, dose response (AID 624132).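 Also: firefly luciferase luminescence from reporter carrying the Shn3 3'UTR in osteoblasts.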 The class given is functional.
In experiment [18] the target is COUP transcription factor 2 (Homo sapiens, UniProt P24468). The experiment in a line: Luminescence-based cell-based high throughput dose response assay to identify inhibitors of COUP-TFII (NR2F2). The class given is functional.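 Also: HEK293 cells transiently cotransfected with COUP-TFII expression vector and reporter; luciferase reporter luminescence driven by COUP-TFII from the pX2-168 reporter plasmid.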
Chain of COUP transcription factor 2 (P24468 whole entry): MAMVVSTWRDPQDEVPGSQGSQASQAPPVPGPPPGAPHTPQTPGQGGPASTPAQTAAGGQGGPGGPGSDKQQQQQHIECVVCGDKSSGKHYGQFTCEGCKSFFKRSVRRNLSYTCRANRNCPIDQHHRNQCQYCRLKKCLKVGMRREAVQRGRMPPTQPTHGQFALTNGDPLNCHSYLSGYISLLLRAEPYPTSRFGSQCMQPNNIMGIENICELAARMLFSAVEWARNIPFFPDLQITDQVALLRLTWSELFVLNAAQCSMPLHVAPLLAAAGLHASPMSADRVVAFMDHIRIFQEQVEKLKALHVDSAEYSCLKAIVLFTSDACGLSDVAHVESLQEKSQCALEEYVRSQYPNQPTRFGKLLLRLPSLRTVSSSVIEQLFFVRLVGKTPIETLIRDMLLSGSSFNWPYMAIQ
The nature of experiment [19]: MIN6 cell viability loss – mouse insulinoma, cytotoxicity control, dose response (AID 2122).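 Also: confirmatory high-throughput counterscreen run to flag cytotoxic compounds.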 The class given is functional.
A short description of experiment [20]: non-specific 3'UTR reporter inhibition in Clone20-Shn3RL – cell-based, Renilla luciferase, cherry-picked, counter-screen for Shn3 inhibitor project, dose response (AID 624133). In kind it is functional.
Experiment [21] deals with BJ. The experiment in a line: growth inhibition of engineered Ras-driven BJ cells – cell-based, alamar blue fluorescence, cherrypicked samples, dose response (AID 2631).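 Also: confirmatory dose-response assay in RAS-dependent BJ fibroblasts engineered with TERT, LT and ST, with cytotoxicity read by fluorescence.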 Conditions: Homo sapiens. In kind it is functional.
Experiment [22] has as its target Induced myeloid leukemia cell differentiation protein Mcl-1 (Homo sapiens, UniProt Q07820). Put plainly: blockers of MCL1 binding to BIM peptide – biochemical, fluorescence polarization, BIM-BH3 peptide, 1536-well, dose response (AID 2217).
The target of a further experiment is T1, Caspase-6 (Homo sapiens, UniProt P55212).
T1 sequence (P55212 whole entry): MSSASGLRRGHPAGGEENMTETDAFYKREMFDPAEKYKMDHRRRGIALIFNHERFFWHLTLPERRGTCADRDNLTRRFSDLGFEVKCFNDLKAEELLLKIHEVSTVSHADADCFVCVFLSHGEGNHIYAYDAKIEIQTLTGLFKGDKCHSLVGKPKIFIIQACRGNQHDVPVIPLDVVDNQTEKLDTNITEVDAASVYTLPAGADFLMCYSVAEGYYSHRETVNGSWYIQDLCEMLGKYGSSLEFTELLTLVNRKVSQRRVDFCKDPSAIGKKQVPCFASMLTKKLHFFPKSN
Put plainly: inhibition of CASP6 peptide cleavage – biochemical, VEID-R110 fluorescence, cherry-pick, dose response (AID 720632).

The next experiment deals with Bcl-2-like protein 1 (Homo sapiens, UniProt Q07817). The experiment in a line: blockers of BCLXL peptide binding – biochemical, fluorescence polarization, 1536-well, selectivity assay for MCL1 inhibitor project, dose response (AID 2218). On the technique in general: Polarisation of emitted light reports the rotation of a fluorescent probe.
Chain of Bcl-2-like protein 1 (Q07817 whole entry): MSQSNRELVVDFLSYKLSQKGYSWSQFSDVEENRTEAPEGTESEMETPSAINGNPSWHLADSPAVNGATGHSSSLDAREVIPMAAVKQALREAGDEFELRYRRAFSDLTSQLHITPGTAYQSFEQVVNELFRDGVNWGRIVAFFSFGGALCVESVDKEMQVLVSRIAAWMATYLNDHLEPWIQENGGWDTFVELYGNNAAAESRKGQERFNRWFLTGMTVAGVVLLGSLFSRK

Active and inactive are the calls of the source. Some results are limits rather than exact numbers.

Chain of Induced myeloid leukemia cell differentiation protein Mcl-1 (Q07820 whole entry): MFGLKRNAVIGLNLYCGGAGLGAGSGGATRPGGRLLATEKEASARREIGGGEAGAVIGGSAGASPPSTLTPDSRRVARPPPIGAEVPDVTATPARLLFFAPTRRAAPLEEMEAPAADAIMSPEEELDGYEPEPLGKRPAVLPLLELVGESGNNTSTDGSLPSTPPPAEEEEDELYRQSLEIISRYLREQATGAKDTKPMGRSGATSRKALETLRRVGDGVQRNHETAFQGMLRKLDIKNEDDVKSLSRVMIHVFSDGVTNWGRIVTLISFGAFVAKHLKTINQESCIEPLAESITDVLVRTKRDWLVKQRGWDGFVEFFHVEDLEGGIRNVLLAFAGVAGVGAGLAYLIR

Broadly, the EC50 is the midpoint of the concentration-response curve. The term IC50 denotes the concentration at which inhibition is half-maximal. The term AC50 denotes the concentration giving half of the maximal activity seen. For the compound `O=C1N(c2ccccc2)C[C@@H]2C[C@@H](c3cc4ccccc4o3)N3CCC[C@@]123`, the EC50 in the experiment on BJ [1] is 318 nM (inconclusive); in experiment [2] it was 266 nM (inconclusive); in [6], 1600 nM (active); in experiment [7] it was 480 nM (active); in experiment [10], 239 nM (inconclusive); in the experiment with BJ [11], 1370 nM (active). Further, the EC50 is > 120000 nM (not active) in [12], 2350 nM (active) in the experiment on BJ [14], > 120000 nM (not active) in [15] and 205 nM (active) in the experiment with BJ [21]. For the same compound, the IC50 in [3] was 189 nM (active); in experiment [5], 441 nM (active); in experiment [18] it was 737 nM (active); in experiment [19], 535 nM (active). Moreover, the half-maximal activity concentration (AC50) is 1010 nM (active) in [4]; 1260 nM (active) in experiment [8]; 534 nM (active) in experiment [9]; 1270 nM (active) in [13]; 1300 nM (active) in experiment [16]; 536 nM (active) in experiment [17]. In experiment [20], the AC50 was 29900 nM (active).

As to `C/C(=N\NC(=O)c1cc(O)ccc1O)c1cccc(NC(=O)c2ccc(Cl)cc2)c1`, the values for the half-maximal inhibitory concentration (IC50) (in experiment [22]; on Bcl-2-like protein 1) were 59100 nM (not active) and > 109000 nM (not active), respectively. In addition, at Caspase-6, the AC50 is 8910 nM (active).
